Patent publication US11390603B2, “Crystalline forms of a biphenyl compound” (THERAVANCE BIOPHARMA R&D IP, LLC, priority 2005, dated 2022)

Assays:
[1] = DMS trace
Description: A dynamic moisture sorption (DMS) assessment (also known as a moisture sorption-desorption profile) was performed using a VTI atmospheric microbalance, SGA-100 system (VTI Corp., Hialeah, Fla. 33016). A sample size of approximately 10 mg was used and the humidity was set at the ambient value at the start of the analysis. A typical DMS analysis consisted of three scans: ambient to 2% relative humidity (RH), 2% RH to 90% RH, 90% RH to 5% RH at a scan rate of 5% RH/step. The mass was measured every two minutes and the RH was changed to the next value (+/−5% RH) when the mass of the sample was stable to within 0.01% for 5 consecutive points.

[2] = six weeks at −20° C. (closed) and 40° C./75% RH (open and closed)
Description: At specific intervals, the entire contents of a representative vial was analyzed by the following HPLC method: […]

[3] = pH 5
Description: A solution was prepared with 0.5 mg/mL freebase equivalents (using a crystalline diphosphate salt prepared as described in Example 3) in 10 mM citrate buffered normal saline, pH 5. […] Less than 0.5% degradation was observed after storage for one month at 40° C./75% RH.

[4] = DSC trace, 10° C./min
Description: Differential scanning calorimetry (DSC) was performed using a TA Instruments Model Q-10 module with a Thermal Analyst controller. Data were collected and analyzed using TA Instruments Thermal Solutions software. A sample of about 1-4 mg was accurately weighed into an aluminum pan with lid. The sample was evaluated using a linear heating ramp of 10° C./min from ambient temperature to approximately 300° C. The DSC cell was purged with dry nitrogen during use.

SMILES | sorption/desorption profile and hygroscopicity [1] | weight gain when exposed to 2-90% RH [1] [%] | weight gain in the humidity range of 40-75% RH [1] [%] | solid state stability: change in chemical purity [2] | degradation of solution after storage ([3]; 0.5 mg/mL freebase equivalents in 10 mM citrate buffered normal saline, one month at 40° C./75% RH) | solubility of the crystalline salt ([3]; 10 mM citrate buffered normal saline) | temperature below which no thermal decomposition occurs [4] [°C]
CN(CCN1CCC(OC(=O)Nc2ccccc2-c2ccccc2)CC1)C(=O)c1ccc(CN2CCC(C(N)=O)CC2)cc1.O=C(O)C(=O)O.O=C(O)C(=O)O [Example 7, Crystalline Dioxalate Salt of Biphenyl-2-ylcarbamic Acid 1-(2-{[4-(4-Carbamoylpiperidin-1-ylmethyl)benzoyl]methylamino}ethyl)piperidin-4-yl Ester] | reversible sorption/desorption profile with low hygroscopicity | 5.3 | 1.1 | – | – | – | –
CN(CCN1CCC(OC(=O)Nc2ccccc2-c2ccccc2)CC1)C(=O)c1ccc(CN2CCC(C(N)=O)CC2)cc1.O=P(O)(O)O.O=P(O)(O)O [Example 3, Crystalline Diphosphate Salt of Biphenyl-2-ylcarbamic Acid 1-(2-{[4-(4-Carbamoylpiperidin-1-ylmethyl)benzoyl]methylamino}ethyl)piperidin-4-yl Ester] | reversible sorption/desorption profile with low hygroscopicity | 3.3 | 0.6 | no detectable change in chemical purity | Less than 0.5% | greater than 40 mg/mL of freebase equivalent | ≥ 150
CN(CCN1CCC(OC(=O)Nc2ccccc2-c2ccccc2)CC1)C(=O)c1ccc(CN2CCC(C(N)=O)CC2)cc1.O=S(=O)(O)O [Example 5, Crystalline Monosulfate Salt of Biphenyl-2-ylcarbamic Acid 1-(2-{[4-(4-Carbamoylpiperidin-1-ylmethyl)benzoyl]methylamino}ethyl)piperidin-4-yl Ester] | reversible sorption/desorption profile with low hygroscopicity | 10 | 1.8 | – | – | – | –
CN(CCN1CCC(OC(=O)Nc2ccccc2-c2ccccc2)CC1)C(=O)c1ccc(CN2CCC(C(N)=O)CC2)cc1 [Example 11, Crystalline Freebase Biphenyl-2-ylcarbamic Acid 1-(2-{[4-(4-Carbamoylpiperidin-1-ylmethyl)benzoyl]methylamino}ethyl)piperidin-4-yl Ester (Form II)] | reversible sorption/desorption profile with low hygroscopicity | 9 | 1.3 | – | – | – | ≥ 75
CN(CCN1CCC(OC(=O)Nc2ccccc2-c2ccccc2)CC1)C(=O)c1ccc(CN2CCC(C(N)=O)CC2)cc1 [Example 10, Crystalline Freebase Biphenyl-2-ylcarbamic Acid 1-(2-{[4-(4-Carbamoylpiperidin-1-ylmethyl)benzoyl]methylamino}ethyl)piperidin-4-yl Ester (Form I)] | reversible sorption/desorption profile with low hygroscopicity | 10 | 1.2 | – | – | – | ≥ 80
